Data set [1] deals with β-gal. To be noted: cited from earlier work.
In data set [2] the test system is CT26.WT cells. The experiment in a line: Fluorescence microscope imaging of wild type cells by NIR-BG1 and NIR-BG2. It is filed as cell-based, mouse. An excerpt: (§1) In order to further verify that our probe can specifically detect β-gal in cells, CT26.CL25 cells were imaged with our probes and compared with the CT26.WT cells.
For data set [3], the system named is HeLa tumors. The experiment in a line: HeLa xenografts imaging of senescence by NIR-BG1 and NIR-BG2. It is filed as in vivo, mice. Conditions: for fluorescence of senescent tumor relative to normal tumor: CPT vs saline, quantification of optical imaging; for fluorescence of senescent tumor relative to normal tumor / fluorescence of CPT treated tumor compared to saline treated tumor: tail vein injection. As for the experimental part: HeLa xenografts imaging was successfully performed to further evaluate the capability of NIR-BG1 and NIR-BG2 to visualize senescence in vivo. HeLa tumor-bearing mice were treated with CPT or saline to induce the senescent cancer cells. […] Ex vivo imaging and quantitative analysis of the tumors and organs further confirmed the in vivo imaging results.

Data set [4] has as its system HeLa cells. The experiment in a line: Imaging of β-gal in senescent and normal HeLa cells by NIR-BG1 and NIR-BG2. The data set is classed as cell-based, human. Conditions: for NIR signal in normal cells: normal HeLa cells.
Data set [5] concerns CT26.CL25 cells. The experiment in a line: Fluorescence microscope imaging of LacZ(+) cells by NIR-BG1 and NIR-BG2. The data set is classed as cell-based, mouse.
From the text: as §1

Data set [6] relates to β-galactosidase. An excerpt:
FIG. 25A is absorbance and emission spectra of the unactivated NIR-BG probe by β-galactosidase.
FIG. 25B is absorbance and emission spectra of the activated NIR-BG probe by β-galactosidase.

For data set [7], the system named is MCF7 cells. The experiment in a line: Confocal microscopy of normal and senescent cells. The data set is classed as cell-based, human. An excerpt: (§2) Since SABG is localized in the lysosome, we then performed confocal microscopy of the normal and senescent HeLa or MCF7 cells (Not shown). […] X-gal staining also verified the existence of SABG in cells after chemotherapy and radiation therapy.

Data set [8] has as its system HeLa cells. The experiment in a line: Confocal microscopy of normal and senescent cells. The data set is classed as cell-based, human.
From the text: as §2

Data set [9] relates to CT26.CL25 cells.
Procedure: (§6) In order to see whether our NIR-BG probe can be used for β-gal detection in live cells, we chose an engineered cell line that stably express LacZ(+), the gene that encodes β-gal. […] Cell samples after incubating with our NIR-BG probe were analyzed using flow cytometry (FIG. 13-15) and confocal microscopy (not shown).
Data set [10] relates to CT26.WT cells. The experiment in a line: Flow cytometry, negative control cells. To be noted: same treatment, probe 10 μM, λex=640 nm. It is filed as cell-based, mouse. The protocol:
FIG. 14 is a graph showing flow cytometry detection of negative control CT26.WTcells probe (10 μM), λex=640 nm.
(§3) FIG. 15 depicts the quantification of the mean fluorescence intensity in FIGS. 13 and 14.

The subject of data set [11] is CT26.WT cells.
Procedure: as §6
Data set [12] deals with CT26.CL25 cells. The experiment in a line: Confocal fluorescence microscopy of LacZ(+) live cells. It is filed as cell-based, mouse.
Procedure: (§7) In order to see whether our NIR-BG probe can be used for β-gal detection in live cells, we chose an engineered cell line that stably express LacZ(+), the gene that encodes β-gal. CT26.CL25, a mouse colon fibroblast carcinoma cell line that express β-gal, was therefore used in our initial live cell experiments. […] Cell samples after incubating with our NIR-BG probe were analyzed using flow cytometry (FIG. 13-15) and confocal microscopy (not shown).
Data set [13] relates to β-gal in LacZ(+) cells (CT26.CL25). The experiment in a line: Flow cytometry detection of β-gal in LacZ(+) live cells. It is filed as cell-based, mouse. Conditions: CT26.CL25, 1 hour and 4 hours, probe 10 μM, λex=640 nm. The protocol: FIG. 13 is a graph showing flow cytometry detection of β-gal by the NIR-BG probe in LacZ(+) cells (CT26.CL25) probe (10 μM), λex=640 nm.
as §3
(In general: A flow cytometer gives signals particle by particle.)

For data set [14], the system named is HeLa cells. The experiment in a line: Flow cytometry detection of senescence in drug or radiation treated cancer cells. The data set is classed as cell-based, human. As for the experimental part:
FIG. 16 is a graph showing detection of senescence in human cancer cells via flow cytometry of HeLa cells without treatment, or with CPT, CPT/CHX, or radiation treatment. Probe concentration, 10 μM. λex=640 nm; PerCP bandpass filter at 675/25 nm. ***P<0.001.
(§4) With the confidence of our probe being able to detect β-gal in live cells, we moved further to evaluate whether it could differentiate senescent cells and normal cells. Human cervical cancer cells (HeLa) and metastatic breast cancer cells (MCF7), were used in all four groups of cells evaluated. Senescence in HeLa and MCF7 cells were induced using camptothecin (CPT), an inhibitor of DNA topoisomerase I that could cause lethal DNA strand breaks^59. […] Radiation therapy is another effective method for cancer treatment in clinic; it can also induce cell cycle arrest leading to senescence. All four groups of cells, with no drug treatment, with CPT treatment, with both CPT and CHX treatment, or with 10 Gy radiation treatment, were then incubated with our NIR-BG probe, followed by flow cytometry (FIGS. 16-19).

Data set [15] deals with HeLa tumors. The experiment in a line: Fluorescence imaging of chemotherapy-induced senescence in HeLa xenografts (NIR-BG). It is filed as in vivo, mice. To be noted: 675 nm excitation and 720 nm emission. The protocol: We then moved on to HeLa xenografted mice models to see whether probe NIR-BG could visualize chemotherapy-induced senescence in tumors. (FIGS. 26-28) Tumor-bearing mice were first systemically treated with CPT or saline before the probe NIR-BG was injected. […] We were delighted to find that NIR-BG behaved similarly in the drug-treated mice (with drug-induction triggered expression of β-gal) to the CT26 tumor models (with genetically expressed β-gal). […] While not depicted, resected intact whole tumor staining, histochemical staining with X-gal and immunofluorescent staining of tumor tissue with antibodies against β-gal further confirmed the probe activation in senescent tumors.

The test system of data set [16] is CT26.WT cells. The experiment in a line: Confocal fluorescence microscopy, wild type control cells. The data set is classed as cell-based, mouse. Conditions: after 4-hour incubation.
Procedure: as §7
Data set [17] concerns CT26.CL25 and CT26.WT tumors. The experiment in a line: Fluorescence imaging of CT26 tumors with and without active β-gal. It is filed as in vivo, mice. An excerpt:
In a preliminary experiment, we used the genetically modified mice colon cancer cell line CT26 to determine whether NIR-BG could differentiate tumors with and without active β-gal (Not shown). […] We also confirmed β-gal expression in resected whole tumor and tumor slides (Not shown).

The subject of data set [18] is MCF7 cells. The experiment in a line: Flow cytometry detection of senescence in drug or radiation treated cancer cells. The data set is classed as cell-based, human. The protocol:
FIG. 18 is a graph showing Flow cytometry of MCF7 cells without treatment, or with CPT, CPT/CHX, or radiation treatment. Probe concentration, 10 μM. λex=640 nm; PerCP bandpass filter at 675/25 nm. ***P<0.001.
as §4

Data set [19] deals with MCF7 cells. The experiment in a line: Western blot of cell lysates for β-gal, p16 and p21. The data set is classed as cell-based, human. An excerpt:
FIG. 22 is a western blot of β-gal, p16, and p21 expression in MCF7 cells without drug treatment, with CPT or radiation treatment. ***P<0.001, **P<0.005.
FIG. 23 is a quantification of FIG. 22.
(§5) Cell cycle inhibitors p21 and p16 are often expressed by senescent cells^1. Therefore, we examined the cell lysates of all cell samples from the imaging studies using Western blot (FIGS. 20-24). […] In addition to HeLa cells, MCF7 cells also expressed higher levels of p16 and p21 upon CPT treatment (FIGS. 22, 23). The Western blot results confirmed the senescent state of these drug or radiation treated cells used in the imaging experiments.
For orientation: Immunoblotting shows a protein as a band on a membrane.

Data set [20] relates to HeLa cells. The description is as above. The data set is classed as cell-based, human.
From the text: FIG. 20 is a western blot of cell lysates of β-gal, p16, and p21 expression in HeLa cells without drug treatment, with CPT or radiation treatment. ***P<0.001, **P<0.005.
FIG. 21 is a quantification of FIG. 20.
as §5

Data set [21] relates to HeLa tumors. The experiment in a line: HeLa tumor growth with and without CPT treatment. The data set is classed as in vivo. To be noted: HeLa xenografted mice, systemic treatment.
From the text: (The tumors of control group reached the maximum volume limitation and were imaged and euthanized.)

Take “hydroxymethyl rhodol (HMR) β-galactoside”: the fluorescence turn-on ratio in [1] is 1,400 fold.
With `CCC[N+]1=C(/C=C/C2=C3Oc4cc(OCc5ccc(O[C@@H]6O[C@H](CO)[C@H](O)[C@H](O)[C@H]6O)cc5)ccc4C=C3CCC2)C(C)(C)c2ccccc21` [NIR-BG1], the “signal in the NIR channel” value in [2] is reported as “background signal”. Also, in data set [3], the “fluorescence of senescent tumor relative to normal tumor” value is 2.84 times and the “fluorescence of CPT treated tumor compared to saline treated tumor” value is given as “significantly increased fluorescence”. In addition, the “NIR signal in normal cells” value in [4] is given as “no significant signal”. Further, the “NIR signal in senescent cells” value in [4] (senescent HeLa cells) is “showed NIR signals”. The NIR fluorescence result in data set [5] is “high NIR fluorescence”.
In data set [6] (activated probe), `CCC[N+]1=C(/C=C/C2=C3Oc4cc(O[C@@H]5O[C@H](CO)[C@H](O)[C@H](O)[C@H]5O)ccc4C=C3CCC2)C(C)(C)c2ccccc21` [NIR-BG] came in with a maximal absorption of 680 nm. This compound also had a maximal emission in data set [6] (activated probe) of 710 nm. The absorption peak entry in [6] (unactivated probe) was “around 640 nm”. In data set [6] (unactivated probe), the emission peak entry is “around 660 nm”. Moreover, the “colocalization of probe signal with lysosome and β-gal in senescent cells” value in data set [7] and in [8] was “well colocalized” in each case. The “confocal fluorescence in CPT or radiation treated cells versus control cells without treatment” value in data set [7] and in data set [8] was “strikingly higher” each time. Also, the “toxicity in cell culture (cell viability)” value in data set [9] and in data set [11] was “did not appear toxic” each time. The flow cytometry fluorescence result was “only background signal” in [10] and “obvious fluorescence” in data set [13]. Also, the “colocalization of NIR signal with β-gal expression” value in data set [12] (CT26.CL25) is given as “highly colocalized”. The confocal fluorescence signal entry in data set [12] (CT26.CL25, 1-hour probe treatment) is reported as “obvious”. The “flow cytometry fluorescence of CPT or radiation treated cells compared to untreated control cells” value in [14] (probe 10 μM, λex=640 nm) is recorded as “significantly higher fluorescence”; in [18] (MCF7, probe 10 μM, λex=640 nm), “significantly higher fluorescence”. In addition, the “tumor signal of activated form, CPT treatment versus saline” value in data set [15] is listed as “significantly higher signal”. For the same compound, the “confocal fluorescence in the NIR channel” value in [16] is “no fluorescence”. The “difference in tumor signal, CT26.CL25 versus CT26.WT tumors” value in data set [17] (640 nm excitation and 680 nm emission) is “minimal”. Besides, the “tumor signal, LacZ(+) CT26.CL25 versus CT26.WT tumors” value in data set [17] (1 h after probe injection, 675 nm excitation and 720 nm emission) is reported as “significantly higher signals”.
`CC[C@@]1(O)C(=O)OCc2c1cc1n(c2=O)Cc2cc3ccccc3nc2-1` [CPT, camptothecin]: in data set [19], the “p16 and p21 expression upon treatment” value was “higher levels”; the “β-gal levels compared with the control cells” value is reported as “elevated”. Further, in data set [20], the “p16 and p21 expression compared with normal cells” value was “both increased”; the “β-gal levels compared with the control cells” value is “elevated”. For the same compound, in [21], the “tumor growth compared to saline only” value is given as “significantly inhibited”.
Regarding `CCC[N+]1=C(/C=C/C2=C3Oc4cc(OCc5ccc(O[C@@H]6O[C@H](CO)[C@H](O)[C@H](O)[C@H]6O)cc5)c(C(F)F)cc4C=C3CCC2)C(C)(C)c2ccccc21` [NIR-BG2], the “signal in the NIR channel” value in data set [2] was “background signal”. In addition, in data set [3], the “signal and accumulation in the tumors compared with NIR-BG1” value was “much higher signal and extended accumulation”; the “fluorescence of senescent tumor relative to normal tumor” value came out at 3.06 times; the “fluorescence of CPT treated tumor compared to saline treated tumor” value was “significantly increased fluorescence”. Moreover, the “NIR signal in normal cells” value in data set [4] was “no significant signal”. Moreover, in [4] (senescent HeLa cells), the “NIR signal compared with NIR-BG1” value is on record as “significantly higher” and the “NIR signal in senescent cells” value was “showed NIR signals”. Besides, in data set [5], the NIR fluorescence result is listed as “high NIR fluorescence” and the “NIR signal compared with NIR-BG1” value is listed as “significantly higher”.
With `C[C@@H]1C[C@@H]([C@H](O)CC2CC(=O)NC(=O)C2)C(=O)[C@@H](C)C1` [CHX, cycloheximide, reference compound], the “NIR-BG fluorescence in cells treated with both CPT and CHX compared to the CPT-treated group” value in [14] and in data set [18] (MCF7) was “significantly reduced” each time.

The values are drawn from patent US12005128B1, “Near infrared small molecule probes for the detection of cellular senescence” (UNM Rainforest Innovations, priority 2019, dated 2024).
